Test results reported in ChEMBL document CHEMBL3603836, “Hybrid pyrimidine alkynyls inhibit the clinically resistance related Bcr-Abl(T315I) mutant” (Bioorg Med Chem Lett, 2015).
Active and inactive are the calls of the source. No cut-off for these calls is given here.

How the values were obtained:
[1] = test system: Tyrosine-protein kinase ABL1 (Mus musculus), P00520 [T315I]; test: Inhibition of Bcr-Abl T315I mutant in mouse BA/F3 cells assessed as total protein level of STAT5 at 4 to 500 nM after 4 hrs by Western blot analysis; format: cell-based; details: BaF3
Tyrosine-protein kinase ABL1 (Mus musculus), P00520 [T315I], sequence (P00520 whole entry T315I): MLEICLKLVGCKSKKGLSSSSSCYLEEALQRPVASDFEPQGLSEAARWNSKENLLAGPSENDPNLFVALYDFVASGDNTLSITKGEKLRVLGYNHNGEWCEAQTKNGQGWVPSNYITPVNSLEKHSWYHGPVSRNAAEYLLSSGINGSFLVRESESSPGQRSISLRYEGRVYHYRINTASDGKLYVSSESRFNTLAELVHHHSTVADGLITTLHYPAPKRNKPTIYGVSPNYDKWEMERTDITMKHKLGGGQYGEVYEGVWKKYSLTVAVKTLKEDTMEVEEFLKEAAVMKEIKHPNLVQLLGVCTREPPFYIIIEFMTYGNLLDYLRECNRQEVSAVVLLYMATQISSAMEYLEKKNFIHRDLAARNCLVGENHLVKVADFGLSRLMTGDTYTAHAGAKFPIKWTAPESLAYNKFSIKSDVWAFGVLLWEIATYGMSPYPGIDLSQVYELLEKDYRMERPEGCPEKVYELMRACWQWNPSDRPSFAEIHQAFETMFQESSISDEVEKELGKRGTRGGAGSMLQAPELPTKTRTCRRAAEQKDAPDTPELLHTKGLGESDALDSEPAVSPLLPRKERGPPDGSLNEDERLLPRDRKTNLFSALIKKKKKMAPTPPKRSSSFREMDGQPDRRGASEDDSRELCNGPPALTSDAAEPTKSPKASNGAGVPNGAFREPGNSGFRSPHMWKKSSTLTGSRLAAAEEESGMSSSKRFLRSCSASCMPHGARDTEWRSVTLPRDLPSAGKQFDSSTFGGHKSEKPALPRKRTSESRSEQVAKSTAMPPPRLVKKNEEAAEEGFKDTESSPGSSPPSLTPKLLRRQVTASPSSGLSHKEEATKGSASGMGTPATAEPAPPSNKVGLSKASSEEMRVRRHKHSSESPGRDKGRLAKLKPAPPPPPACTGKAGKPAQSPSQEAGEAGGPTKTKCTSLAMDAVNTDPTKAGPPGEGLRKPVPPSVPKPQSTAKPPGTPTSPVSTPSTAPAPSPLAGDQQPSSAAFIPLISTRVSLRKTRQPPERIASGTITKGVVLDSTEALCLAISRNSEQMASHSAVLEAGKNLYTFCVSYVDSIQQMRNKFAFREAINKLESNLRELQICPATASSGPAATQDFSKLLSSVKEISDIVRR

[2] = test system: K562; test: Induction of apoptosis in human K562 cells expressing wild type Bcr-Abl assessed as late apoptotic cells at 100 nM after 24 hrs using annexin-V/7-AAD staining by FACS analysis (reference value: 2.1%); format: functional
[3] = test system: K562; test: cells; details: Homo sapiens, K562, 72 h
Description: Antiproliferative activity against human K562 cells expressing wild type Bcr-Abl after 72 hrs by CCK-8 assay

[4] = test system: BaF3; test: Induction of apoptosis in mouse BA/F3 cells expressing Bcr-Abl T315I mutant assessed as late apoptotic cells at 500 nM after 24 hrs using annexin-V/7-AAD staining by FACS analysis (reference value: 2.2%); format: functional
[5] = test system: BaF3; test: Induction of apoptosis in mouse BA/F3 cells expressing Bcr-Abl T315I mutant assessed as late apoptotic cells at 4 nM after 24 hrs using annexin-V/7-AAD staining by FACS analysis (reference value: 2.2%); format: functional
[6] = test system: K562; test: Induction of apoptosis in human K562 cells expressing wild type Bcr-Abl assessed as early apoptotic cells at 100 nM after 24 hrs using annexin-V/7-AAD staining by FACS analysis (reference value: 7.3%); format: functional
[7] = test system: Tyrosine-protein kinase ABL1 (Mus musculus), P00520 [T315I]; test: Inhibition of Bcr-Abl T315I mutant phosphorylation in mouse BA/F3 cells after 4 hrs by Western blot analysis; format: cell-based; details: BaF3
[8] = test system: K562; test: Induction of apoptosis in human K562 cells expressing wild type Bcr-Abl assessed as early apoptotic cells at 20 nM after 24 hrs using annexin-V/7-AAD staining by FACS analysis (reference value: 7.3%); format: functional
[9] = test system: K562; test: Antitumor activity against human K562 cells expressing wild type Bcr-Abl xenografted in mouse assessed as sign of tumor recurrence at 10 mg/kg, po qd for 16 days measured after 7 days of last dose; format: functional, organism-based
[10] = biological target: Bcr/Abl fusion protein (Homo sapiens, UniProt P00519); format: protein assay
Description: Inhibition of wild type Bcr-Abl (unknown origin) using Tyr2 peptide substrate after 2 hrs by FRET-based Z'-lyte assay

[11] = test system: BaF3; test: Induction of apoptosis in mouse BA/F3 cells expressing Bcr-Abl T315I mutant assessed as late apoptotic cells at 20 nM after 24 hrs using annexin-V/7-AAD staining by FACS analysis (reference value: 2.2%); format: functional
[12] = test system: K562; test: Cell cycle arrest in human K562 cells expressing wild type Bcr-Abl assessed as accumulation at G0/G1 phase at 20 nM after 24 hrs using propidium iodide staining by flow cytometry (reference value: 64.03%); format: functional
[13] = test system: Rattus norvegicus; test: AUC (0 to infinity) in Sprague-Dawley rat at 25 mg/kg, po; format: ADME, organism-based; set-up: dose 25 mg/kg, time infinity, route oral; details: in vivo
[14] = test system: BaF3; test: Induction of apoptosis in mouse BA/F3 cells expressing Bcr-Abl T315I mutant assessed as early apoptotic cells after 24 hrs using annexin-V/7-AAD staining by FACS analysis; format: functional, cell-based
[15] = test system: K562; test: Antitumor activity against human K562 cells expressing wild type Bcr-Abl xenografted in mouse assessed as complete eradication of tumor at 10 mg/kg, po qd for 8 days; format: functional, organism-based
[16] = test system: K562; test: Cell cycle arrest in human K562 cells expressing wild type Bcr-Abl assessed as accumulation at G0/G1 phase at 0.8 nM after 24 hrs using propidium iodide staining by flow cytometry (reference value: 64.03%); format: functional
[17] = test system: Tyrosine-protein kinase ABL1 (Mus musculus), P00520 [T315I]; test: Inhibition of Bcr-Abl T315I mutant in mouse BA/F3 cells assessed as reduction of STAT5 phosphorylation at 4 to 500 nM after 4 hrs by Western blot analysis; format: cell-based; details: BaF3
[18] = test system: BaF3; test: Induction of apoptosis in mouse BA/F3 cells expressing Bcr-Abl T315I mutant assessed as late apoptotic cells at 100 nM after 24 hrs using annexin-V/7-AAD staining by FACS analysis (reference value: 2.2%); format: functional
[19] = biological target: Bcr/Abl fusion protein (Homo sapiens, UniProt P00519, T315I); format: protein assay
[20] = test system: K562; test: Induction of apoptosis in human K562 cells expressing wild type Bcr-Abl assessed as early apoptotic cells after 24 hrs using annexin-V/7-AAD staining by FACS analysis; format: functional, cell-based
[21] = Cell cycle arrest in mouse BA/F3 cells expressing Bcr-Abl T315I mutant assessed as accumulation at G0/G1 phase at 100 nM after 24 hrs using propidium iodide staining by flow cytometry (reference value: 51.92%); format: functional, cell-based; details: BaF3
[22] = Antiproliferative activity against mouse BA/F3 cells expressing wild type Bcr-Abl after 72 hrs by CCK-8 assay; format: functional, cell-based; details: BaF3, 72 h
[23] = Cell cycle arrest in mouse BA/F3 cells expressing Bcr-Abl T315I mutant assessed as accumulation at G0/G1 phase at 500 nM after 24 hrs using propidium iodide staining by flow cytometry (reference value: 51.92%); format: functional, cell-based; details: BaF3
[24] = test system: BaF3; test: Antitumor activity against mouse BA/F3 cells expressing Bcr-Abl T315I mutant allografted in mouse assessed as tumor regression at 30 mg/kg, qd for 16 days; format: functional, organism-based
[25] = test system: K562; test: Antitumor activity against human K562 cells expressing wild type Bcr-Abl xenografted in po dosed mouse assessed as tumor growth inhibition administered qd for 16 days; format: functional, organism-based
[26] = test system: K562; test: Induction of apoptosis in human K562 cells expressing wild type Bcr-Abl assessed as late apoptotic cells after 24 hrs using annexin-V/7-AAD staining by FACS analysis; format: functional, cell-based
[27] = test system: K562; test: Induction of apoptosis in human K562 cells expressing wild type Bcr-Abl assessed as late apoptotic cells at 20 nM after 24 hrs using annexin-V/7-AAD staining by FACS analysis (reference value: 2.1%); format: functional
[28] = test system: K562; test: Induction of apoptosis in human K562 cells expressing wild type Bcr-Abl assessed as early apoptotic cells at 4 nM after 24 hrs using annexin-V/7-AAD staining by FACS analysis (reference value: 7.3%); format: functional
[29] = test system: Tyrosine-protein kinase ABL1 (Mus musculus), P00520 [T315I]; test: Inhibition of Bcr-Abl T315I mutant in mouse BA/F3 cells assessed as total protein level of CRKL at 4 to 500 nM after 4 hrs by Western blot analysis; format: cell-based; details: BaF3
[30] = Cell cycle arrest in mouse BA/F3 cells expressing Bcr-Abl T315I mutant assessed as accumulation at G0/G1 phase after 24 hrs using propidium iodide staining by flow cytometry; format: functional, cell-based; details: BaF3
[31] = Ratio of Cmax in Sprague-Dawley rat at 25 mg/kg, po to IC50 for Bcr-Abl T315I mutant (unknown origin); format: ADME, organism-based; details: in vivo
[32] = test system: BaF3; test: Induction of apoptosis in mouse BA/F3 cells expressing Bcr-Abl T315I mutant assessed as early apoptotic cells at 20 nM after 24 hrs using annexin-V/7-AAD staining by FACS analysis (reference value: 4.6%); format: functional
[33] = test system: K562; test: Induction of apoptosis in human K562 cells expressing wild type Bcr-Abl assessed as late apoptotic cells at 4 nM after 24 hrs using annexin-V/7-AAD staining by FACS analysis (reference value: 2.1%); format: functional
[34] = test system: K562; test: Cell cycle arrest in human K562 cells expressing wild type Bcr-Abl assessed as accumulation at G0/G1 phase at 100 nM after 24 hrs using propidium iodide staining by flow cytometry (reference value: 64.03%); format: functional

Cc1cn(-c2cc(NC(=O)c3ccc(C)c(C#Cc4cnc(NC5CC5)nc4)c3)cc(C(F)(F)F)c2)cn1
inhibition [1]: inactive
Activity [2]: 9%
IC50 [3]: 2 nM
Activity [4]: 4.3%
Activity [5]: 3.3%
Activity [6]: 73.6%
inhibition [7]: Dose-dependent effect
Activity [8]: 14.2%
Activity [9]: inactive
IC50 [10]: 5 nM
Activity [11]: 4.1%
Activity [12]: 87.03%
AUC [13]: 251684 µg/L/h
Activity [14]: Dose-dependent effect
Activity [15]: Active
Activity [16]: 67.61%
inhibition [17]: Active
Activity [18]: 4%
IC50 [19]: 9 nM
Activity [20]: Dose-dependent effect
Activity [21]: 67.2%
IC50 [22]: 2 nM
Activity [23]: 70.2%
Activity [24]: Active
growth inhibition (GI) [25]: Dose-dependent effect
Activity [26]: Dose-dependent effect
Activity [27]: 2.5%
Activity [28]: 6.7%
inhibition [29]: inactive
Activity [30]: Dose-dependent effect
Ratio [31]: 1333
Activity [32]: 6.6%
Activity [33]: 2%
Activity [34]: 91.44%
